The source of these data is patent publication US20230027072A1, “IMPROVED METHODS, KITS, COMPOSITIONS AND DOSING REGIMENS FOR THE USE OF HETEROCYCLIC INHIBITORS OF ERK1 AND ERK2” (Asana Biosciences, LLC, priority 2019, published 2023).

Read-outs that look alike come from different tables or passages of the source.

The subject of data set [1] is phosphorylation of RSK1(S380) (the downstream target of ERK1/2). The data set can be described thus: Mechanistic (phospho-RSK1(S380) ELISA) assay in HT-29 cells. In kind it is cell-based, human. Conditions: 2 h treatment, read-out: Mechanistic Cell Assay RSK1 Phos HT29 IC50. Here is the method:
Mechanistic (Phospho-RSK1(5380) ELISA) Assay
HT-29 cells (colorectal carcinoma, B-RafV600E); obtained from ATCC, USA) were seeded (60,000 cells/well) in a 96-well plate and incubated at 37° C./5% CO2 overnight and then treated with desired compound dilutions for 2 h. Medium was removed and cells were rinsed once with ice-cold 1×PBS, then 0.070 mL ice-cold 1× cell lysis buffer containing 1 mM PMSF was added to each well and the plate was incubated on a shaker for 2 h and 30 min at 4° C. The plate was then centrifuged for 20 min (×4000 rpm) at 4° C. and the supernatant was transferred to a new plate. Cell lysates were diluted with sample diluent at a ratio of 1:1. The ELISA was then carried out following the manufacturer's protocol (PathScan® phospho-RSK1(Ser380) Sandwich ELISA Kit, Cell Signaling Technologies). The plate was read at 450 nm within 30 min after adding STOP solution. The IC50 values were subsequently determined using a sigmoidal dose-response curve (variable slope) in GraphPad Prism® 5 software. Compounds of the present disclosure inhibited phosphorylation of RSK1(5380) (the downstream target of ERK1/2) as determined in this assay.
(ELISA stands for enzyme-linked immunosorbent assay.)

The test system of data set [2] is HCT116 (colorectal carcinoma, K Ras G13D) cells. The data set can be described thus: Cell proliferation (Alamar Blue) assay, HCT116. Type of data set: cell-based, human. The method, then: (§1) Cell Proliferation (Alamar Blue) Assay
(§2) HT-29 (colorectal carcinoma, B-RafV600E), HCT116 (colorectal carcinoma, K Ras G13D), A375 (melanoma, B-RafV600E) and SK-Mel2 (melanoma, NRAS Q61R) cells (obtained from ATCC, USA) were seeded (5000 cells/well) in 96-well tissue culture plate and incubated at 37° C./5% CO2 for 16-24 hours. The cells were then treated with compounds, at concentrations typically from 0.0005 to 10 uM prepared in 3-fold serial dilutions. The plates were then incubated for 72 h at 37° C./5% CO2 in a moist environment. Then Alamar Blue™ reagent (final concentration 1×) was added to each well and incubated for 1-3 h at 37° C./5% CO2. The plates were read on fluorescence reader at 540 nm excitation and 590 nm emission wavelengths. The IC50 values were subsequently determined using a sigmoidal dose-response curve (variable slope) using GraphPad Prism® 5 software. Compounds of the present disclosure caused inhibition of HT-29, HCT116, A375 and SK-Mel2 cell proliferation as determined in these assays.

Data set [3] has as its system HT-29 (colorectal carcinoma, B-RafV600E) cells. The data set is described as follows: Cell proliferation (Alamar Blue) assay, HT-29. Type of data set: cell-based, human. Conditions: read-out: Cell Proliferation Assay HT29 IC50. The method, then:
as §1, §2
In general terms: Alamar Blue is a resazurin reagent that responds to reducing activity.

Data set [4] can be described thus: Phase 1 clinical study, pharmacokinetics (Example 39). In kind it is in vivo. Conditions: human; for AUC / Cmax: plasma, oral, Day 15; for AUC: read-out: AUCtau, mean (CV %); for Cmax: read-out: Cmax, mean (CV %). An excerpt:
This human clinical study is designed to determine the maximum tolerated dose of the compound of Example 349 [S)—N-(2-Amino-1-(3-chloro-5-fluorophenyl)ethyl)-1-(5-methyl-2-((tetrahydro-2H-pyran-4-yl)amino)pyrimidin-4-yl)-1H-imidazole-4-carboxamide mandelic acid salt] and evaluate its safety, tolerability, pharmacokinetics and pharmacodynamics. This study is an open-label, non-randomized uncontrolled, multicenter, dose escalation, and cohort expansion study in subjects with histologically or cytologically confirmed advanced solid tumors for which no standard therapy exists. The compound of Example 349 was formulated as described in Example 35 above for administration to the study subjects.
Daily dosing: This part of the study was conducted using an accelerated titration design in which patients were dosed once daily in cycles of 3 weeks. The accelerated phase of the study included single-patient cohorts and escalation increases of 100% up to 80 mg/day dose cohorts in the absence of DLTs or ≥Grade 2 drug-related toxicity. In the absence of any DLTs or ≥Grade 2 drug-related toxicity, the conventional 3+3 design commenced at 80 mg/day dose level.
Weekly dosing: Once weekly dosing of subject in 3+3 escalating dose cohorts was explored as warranted by the emerging pharmacokinetics and clinical trial experience. Once weekly dose escalation increments were up to 50%, based on the absence of DLTs or ≥Grade 2 drug-related toxicity and the available tablet strengths. Initiation of escalating daily and weekly higher dose levels occurred only following safety data review and agreement by the Safety Review Committee.
Part A included and Part B will include a screening period (up to 21 days) and an estimated treatment period for up to 12 months. […] At the end of treatment, a post-treatment period of 4 weeks will commence that concludes with an end-of-study visit.
The pharmacokinetics of the compound of Example 349 was evaluated in the study subjects with solid tumors following once-daily oral administration at 10-80 mg or QW administration at 80-350 mg. […] With once-daily dosing, the accumulation in Cmax and AUCtau were approximately 2-fold based on the 40 mg data. With once-weekly administration, drug accumulation in plasma was minimal. […] Results of these pharmacokinetic studies are further illustrated in FIGS. 6 and 7, which show the plasma concentration-time profiles for the QD and QW regimens. FIGS. 6A and 6B show the plasma concentration over time for the compound of Example 349 measured on day 1 and day 15 for daily dosing at 10 mg/kg, 20 mg/kg, 40 mg/kg, 60 mg/kg and 80 mg/kg. […] FIGS. 7A and 7B show the plasma concentration over time for the compound of Example 349 measured on day 1 and day 15 for weekly dosing at 80 mg/kg, 120 mg/kg, 180 mg/kg, 250 mg/kg and 350 mg/kg.

[5] abbreviates: 40 mg daily (MTD for QD regimen).
The mark [6] stands for this setting: 250 mg weekly (MTD for QW regimen).

Turning to `Cc1cnc(NC2CCOCC2)nc1-n1cnc(C(=O)NC(c2cccc(Cl)c2)C(C)O)c1` (centres unmarked) [Example 253, N-(1-(3-chlorophenyl)-2-hydroxypropyl)-1-(5-methyl-2-((tetrahydro-2H-pyran-4-yl)amino)-pyrimidin-4-yl)-1H-imidazole-4-carboxamide], the IC50 in data set [1] is 500 to 2500 nM; in data set [2] (72 h), over 2500 nM.
On to `Cc1cnc(NC2CCOCC2)nc1-n1cnc(C(=O)NC(CN)c2ccc(Cl)s2)c1` (centres unmarked) [Example 274, N-(2-amino-1-(5-chlorothiophen-2-yl)ethyl)-1-(5-methyl-2-((tetrahydro-2H-pyran-4-yl)amino)pyrimidin-4-yl)-1H-imidazole-4-carboxamide], for which the IC50 in data set [1] (Homo sapiens, HT-29, 2 h) fell in the range of 100 to 250 nM.
For the molecule `Cc1cnc(Nc2ccc(F)cc2)cc1-n1cnc(C(=O)NC(CN)c2ccccc2)c1` (centres unmarked) [Compound 191, N-(2-amino-1-phenylethyl)-1-(2-((4-fluorophenyl)amino)-5-methylpyridin-4-yl)-1H-imidazole-4-carboxamide], the IC50 was in the range of 250 to 500 nM in data set [3] (Homo sapiens, HT-29, 72 h) and 500 to 2500 nM in data set [2] (Homo sapiens, HCT-116, 72 h).
What is called Tmax is the time at which the peak concentration occurs. Broadly, the half-life is the time in which the quantity being followed falls by half. Low values mean rapid decline, high ones slow decline. The term Cmax denotes the peak of the concentration-time curve. As for `Cc1cnc(NC2CCOCC2)nc1-n1cnc(C(=O)N[C@H](CN)c2cc(F)cc(Cl)c2)c1` [Example 349], in data set [4] (in vivo), the “AUCtau values, dependence on dose” value is “dose dependent”; the “Cmax values, dependence on dose” value is given as “dose dependent”; the “Total CL/F, dependence on dose” value is reported as “independent of dose levels”; the “Vd/F, dependence on dose” value is recorded as “independent of dose levels”. In addition, in data set [4] (in vivo, po), the time to peak (Tmax) was 1 to 4 h and the half-life is about 25 h. In data set [4] (setting [5]), the AUC was 492 ng·h/mL and the Cmax was determined as 61.5 ng/mL. Further, in data set [4] (setting [6]), the AUC amounted to 5500 ng·h/mL and the peak concentration (Cmax) was 495 ng/mL.
On to `Cc1cnc(N[C@H]2CC[C@H](O)CC2)nc1-n1cnc(C(=O)N[C@H](CO)c2cccc(Cl)c2)c1` [Example 242, N-((S)-1-(3-chlorophenyl)-2-hydroxyethyl)-1-(2-(((1r,4S)-4-hydroxy-cyclohexyl)amino)-5-methyl-pyrimidin-4-yl)-1H-imidazole-4-carboxamide], for which the IC50 in data set [1] (Homo sapiens, HT-29, 2 h) lay within 250 to 500 nM; in data set [2] (Homo sapiens, HCT-116, 72 h) it was 500 to 2500 nM.
In data set [2] (72 h), `Cc1cnc(Nc2ccc(F)cc2Cl)nc1-n1ccc(C(=O)N[C@H](CO)c2cccc(Cl)c2)c1` [Compound 29, (S)-1-(2-((2-Chloro-4-fluorophenyl)amino)-5-methylpyrimidin-4-yl)-N-(1-(3-chlorophenyl)-2-hydroxyethyl)-1H-pyrrole-3-carboxamide] gave an IC50 of 500 to 2500 nM.
Turning to `Cc1cnc(Nc2ccc(F)cc2)cc1-n1cnc(C(=O)NC(CN)c2ccccc2)c1` (single isomer, unassigned) [Example 227, N-(2-amino-1-phenylethyl)-1-(2-((4-fluorophenyl)-amino)-5-methyl-pyridin-4-yl)-1H-imidazole-4-carboxamide], in data set [3] (Homo sapiens, HT-29, 72 h), the IC50 lay in the range of 100 to 250 nM.
For “N-(1-(3-chloro- phenyl)-2-hydroxy- ethyl)-1-(2-((3- fluoro-2-methoxy- phenyl)amion)-5- methylpyrimidin-4- yl)-1H-pyrrole-3- carboxamide [Example 143]”, the IC50 in data set [1] and in data set [2] (72 h) was 250 to 500 nM each time.
As to `Cc1cnc(NC2CCOCC2)nc1-n1cnc(C(=O)NC(CN)c2ccc(Cl)s2)c1` (single isomer, unassigned; enantiomer #2) [Example 291, N-(2-amino-1-(5-chlorothiophen-2-yl)ethyl)-1-(5-methyl-2-((tetrahydro-2H-pyran-4-yl)amino)pyrimidin-4-yl)-1H-imidazole-4-carboxamide (enantiomer #2)], the IC50 in data set [3] (72 h) was in the range of 250 to 500 nM; in data set [1], 250 to 500 nM; in data set [2] (72 h), 500 to 2500 nM.
For `Cc1cnc(Nc2ccc3occc3c2)nc1-n1ccc(C(=O)NC(CO)c2cccc(Cl)c2)c1` (centres unmarked) [Example 68, 1-(2-(benzofuran-5-ylamino)-5-methylpyrimidin-4-yl)-N-(1-(3-chlorophenyl)-2-hydroxyethyl)-1H-pyrrole-3-carboxamide], the IC50 is 100 to 250 nM in data set [3] (Homo sapiens, HT-29, 72 h); at most 100 nM in data set [1] (Homo sapiens, HT-29, 2 h); 100 to 250 nM in data set [2] (Homo sapiens, HCT-116, 72 h).
Regarding `Cc1cnc(NC2CCOCC2)nc1-n1cnc(C(=O)NC(c2cccc(Cl)c2)C(C)O)c1` (centres unmarked) [Example 252, N-(1-(3-chlorophenyl)-2-hydroxypropyl)-1-(5-methyl-2-((tetrahydro-2H-pyran-4-yl)amino)-pyrimidin-4-yl)-1H-imidazole-4-carboxamide], the IC50 was 100 to 250 nM in data set [1] and 250 to 500 nM in data set [2] (72 h).
The corresponding values for “1-(2- (benzo[d][1,3]diox- ol-5-ylamino)-5- methylpyrimidin-4- yl)-N-(1-(4- fluorophenyl)-2- hydroxyethyl)-1H- pyrrole-3- carboxamide [Example 172]” are 100 to 250 nM and 250 to 500 nM.
Take “N-((1s,3s)-1-(3- chlorophenyl)-3- hydroxycyclo- butyl)- 1-(5-methyl-2- ((tetrahydro-2H-4- yl)amino)pyrimi- din-4-yl)-1H- imidazole-4- carboxamide [Example 245]”: the IC50 in data set [1] fell in the range of 250 to 500 nM.
